Experimental findings from article PMC9977302, “Medium-chain fatty acids suppress lipotoxicity-induced hepatic fibrosis via the immunomodulating receptor GPR84” (JCI Insight, 2023) are described below.

Like-named read-outs stand apart in the source and are kept apart here.

This experiment deals with GPR84 (Mus musculus, UniProt Q8CIM5). In words: cAMP inhibition assay in Dox-inducible mouse GPR84 HEK293 cells, with Dox-uninduced controls. In kind it is cell-based.
Sequence of GPR84 (Q8CIM5 whole entry): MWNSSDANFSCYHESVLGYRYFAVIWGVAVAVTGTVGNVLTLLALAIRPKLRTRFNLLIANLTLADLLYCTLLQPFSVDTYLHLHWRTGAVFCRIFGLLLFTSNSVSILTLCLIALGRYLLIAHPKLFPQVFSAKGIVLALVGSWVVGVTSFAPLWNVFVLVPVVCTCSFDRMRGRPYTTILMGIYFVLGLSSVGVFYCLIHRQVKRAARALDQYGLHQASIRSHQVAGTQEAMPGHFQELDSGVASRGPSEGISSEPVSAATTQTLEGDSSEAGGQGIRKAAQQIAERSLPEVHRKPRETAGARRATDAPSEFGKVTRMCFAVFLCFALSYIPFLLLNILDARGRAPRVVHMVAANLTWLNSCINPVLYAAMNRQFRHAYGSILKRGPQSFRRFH

For orientation: EC50 means the concentration at which the effect is half-maximal. On to `CCCCCCCCCC(=O)O` [C10:0, capric acid], for which the EC50 came to 3.5 µM. `CCCCCCCCCCCC(=O)O` [C12:0]: the EC50 (read-out: EC50) is 4.4 µM.
